In ChEMBL document CHEMBL5576047, “Synthesis of a new 2-prenylated quinoline as potential drug for metabolic syndrome with pan-PPAR activity and anti-inflammatory effects” (Bioorg Med Chem Lett, 2024):
pEC50: −log10 of the molar value.

What was measured:
Type in all cases: cell-based
[1] = molecular target: T1, Peroxisome proliferator-activated receptor alpha (Homo sapiens, UniProt Q07869); assay: Agonist activity at GAL4-tagged human PPARalpha transfected in African green monkey COS7 cells assessed as transcriptional activation by measuring effective concentration incubated for 24 hrs by luciferase assay; conditions: for EC50: cos7; for pEC50: read-out: EC50
T1 sequence (Q07869 whole entry): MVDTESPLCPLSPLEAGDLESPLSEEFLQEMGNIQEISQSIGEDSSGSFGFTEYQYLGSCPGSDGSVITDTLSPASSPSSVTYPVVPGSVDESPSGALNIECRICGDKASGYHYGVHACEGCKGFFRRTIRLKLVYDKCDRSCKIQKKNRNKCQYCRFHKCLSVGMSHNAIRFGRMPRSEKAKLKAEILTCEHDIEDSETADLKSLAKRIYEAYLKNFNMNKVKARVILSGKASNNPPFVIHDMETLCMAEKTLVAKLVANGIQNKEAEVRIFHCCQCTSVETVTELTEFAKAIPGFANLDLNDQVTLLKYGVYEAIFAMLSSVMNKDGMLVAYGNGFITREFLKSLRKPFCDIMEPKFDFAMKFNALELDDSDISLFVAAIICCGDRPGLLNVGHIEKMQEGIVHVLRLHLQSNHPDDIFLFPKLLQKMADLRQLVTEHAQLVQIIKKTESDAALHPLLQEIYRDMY

[2] = molecular target: T2, Peroxisome proliferator-activated receptor gamma (Homo sapiens, UniProt P37231); assay: Agonist activity at GAL4-tagged human PPARgamma transfected in African green monkey COS7 cells assessed as transcriptional activation by measuring effective concentration incubated for 24 hrs by luciferase assay; conditions: for EC50: cos7
T2 sequence (P37231 whole entry): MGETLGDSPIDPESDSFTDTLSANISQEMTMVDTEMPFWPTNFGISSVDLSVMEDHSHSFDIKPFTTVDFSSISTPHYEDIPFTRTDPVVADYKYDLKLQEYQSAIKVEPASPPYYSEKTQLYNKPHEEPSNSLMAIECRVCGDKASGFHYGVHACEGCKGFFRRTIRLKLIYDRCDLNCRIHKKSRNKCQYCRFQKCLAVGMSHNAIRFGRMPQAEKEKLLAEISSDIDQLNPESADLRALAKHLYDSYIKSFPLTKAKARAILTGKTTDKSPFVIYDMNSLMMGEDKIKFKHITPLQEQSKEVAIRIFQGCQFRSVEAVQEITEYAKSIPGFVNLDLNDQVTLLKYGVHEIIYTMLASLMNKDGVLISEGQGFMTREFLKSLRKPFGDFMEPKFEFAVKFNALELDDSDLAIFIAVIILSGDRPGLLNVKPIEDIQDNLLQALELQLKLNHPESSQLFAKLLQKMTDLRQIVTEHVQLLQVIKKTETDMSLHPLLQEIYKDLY

[3] = molecular target: T3, Peroxisome proliferator-activated receptor delta (Homo sapiens, UniProt Q03181); assay: Agonist activity at GAL4-tagged human PPARbeta/delta transfected in African green monkey COS7 cells assessed as transcriptional activation by measuring effective concentration incubated for 24 hrs by luciferase assay
T3 sequence (Q03181 whole entry): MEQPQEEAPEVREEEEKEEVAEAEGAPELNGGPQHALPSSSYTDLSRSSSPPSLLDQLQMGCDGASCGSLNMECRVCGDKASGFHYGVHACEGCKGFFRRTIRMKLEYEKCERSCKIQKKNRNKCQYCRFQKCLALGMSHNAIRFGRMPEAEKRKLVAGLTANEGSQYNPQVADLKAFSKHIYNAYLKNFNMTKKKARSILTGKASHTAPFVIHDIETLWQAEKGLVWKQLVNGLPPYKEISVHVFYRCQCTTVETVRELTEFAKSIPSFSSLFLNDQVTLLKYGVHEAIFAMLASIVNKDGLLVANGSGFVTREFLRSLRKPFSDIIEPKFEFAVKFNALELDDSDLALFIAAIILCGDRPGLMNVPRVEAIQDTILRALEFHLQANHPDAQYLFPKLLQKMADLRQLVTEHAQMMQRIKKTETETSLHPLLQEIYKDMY

| Structure (SMILES) | EC50 [1] | EC50 [2] | pEC50 [1] | also measured |
| --- | --- | --- | --- | --- |
| CCOC(=O)/C(=C/CCC1(C)CCc2cc(OCc3ccccc3)ccc2O1)OCC(F)(F)F (centres undefined) | Not Active | Not Active |  |  |
| Cc1cc(SCc2sc(-c3ccc(C(F)(F)F)cc3)nc2C)ccc1OCC(=O)O [GW501516] | Not Active |  |  |  |
| Cc1cccc(Nc2cc(Cl)nc(SCC(=O)O)n2)c1C [PIRINIXIC ACID] |  | Not Active |  |  |
| CN(CCOc1ccc(CC2SC(=O)NC2=O)cc1)c1ccccn1 (centres undefined) [ROSIGLITAZONE] | Not Active |  |  |  |

More lines, main results first:

| EC50 [1] | EC50 [2] | pEC50 [1] | Structure (SMILES) | also measured |
| --- | --- | --- | --- | --- |
|  |  | 5.53 | CCOC(=O)CC/C(C)=C/CCC1(C)CCc2cc(OCc3ccccc3)ccc2O1 (centres undefined) | pEC50 ([2]; read-out: EC50): 5.80 |
|  |  | 5.49 | CCOC(=O)CC/C(C)=C/CCc1ccc2cc(OCc3ccccc3)ccc2n1 | pEC50 [3]: 5.82 |
